Test results from PMC7948422, “Repurposing p97 inhibitors for chemical modulation of the bacterial ClpB–DnaK bichaperone system” (The Journal of Biological Chemistry, 2020).

How the values were obtained:
[1] = system: ClpB W462F, W543F, W462F/W543F; experiment: Basal ATPase activity of ClpB Trp/Phe variants; assay type: biochemical, Escherichia coli; details: absence of casein
Description: To determine the ATPase activity, ClpB was diluted to 28 μg/ml (49-nM hexamer) in buffer C (50-mM Tris-HCl, pH 7.4, 20-mM MgCl2, 1-mM EDTA, 0.5-mM tris(2-carboxyethyl)phosphine [TCEP]). In some experiments, the ClpB solution was supplemented with 17.4 μg/ml (10 μM) κ-casein. The ClpB aliquots (18 μl) were mixed with 1 μl of the investigated compounds at different concentrations in 100% DMSO or with DMSO as a control. A sample without ClpB was used as a baseline control. After a 10-min preincubation at 37 or 45 °C, the ATP hydrolysis reaction was initiated by adding 1 μl of 100-mM ATP. The samples were incubated for 60 min (basal ClpB activity in the absence of κ-casein) or 15 min (in the presence of κ-casein) at 37 °C or 30 min at 45 °C in the absence of casein. For the E678Q ClpB variant, the incubation time in the presence of κ-casein was 60 min. After incubation, 15 μl of each sample was mixed with 200 μl of the ammonium molybdate/malachite green reagent ([67]) dispensed into a 96-well plate, followed by an addition of 30 μl of 34% sodium citrate ([68]). The plate was agitated inside a Synergy H1 reader (BioTek, Winooski, VT) for 15 min at room temperature, and the samples’ absorbance was measured at 630 nm. The readouts for ClpB-containing samples were corrected for absorbance of samples without ClpB, to account for nonenzymatic production of inorganic phosphate. […]

[2] = system: ClpB-YFP in dnaK103 E. coli; experiment: Confocal microscopy of ClpB-YFP localization; assay type: cell-based, Escherichia coli; details: dnaK103, 100-μM DBeQ, 45 °C 30 min
Description: ClpB-YFP and Luciferase-YFP were expressed at low levels in E. coli strains ΔclpB, dnaK103, and dnaK756 as described before ([44]). The expression of ClpB-YFP and YFP-Luciferase was initiated by addition of 200-μM IPTG or 0.02% (w/v) arabinose, respectively. The bacterial cells were cultured at 30 °C with 100-μM DBeQ or DMSO only. Protein translation was stopped by addition of erythromycin (30 μg/ml), and each culture was divided into two samples. One sample remained at 30 °C (control), whereas the other sample was transferred to 45 °C for 30 min (heat-shock conditions).
A thin layer of 1% agarose (TopVision Low Melting Point Agarose, Thermo Scientific) was prepared on a clean microscope glass slide. A small drop of 1% agarose was placed near the frosted end of the glass slide while bringing a second glass slide at a 30 to 45° angle from above, allowing the agarose drop to spread along the contact edge. […] An E. coli culture sample (1 μl) was immediately placed on the agarose-covered glass slide, covered with a cover slip, and used for fluorescence imaging.
Fluorescence imaging was performed using a Carl Zeiss LSM 880 Airyscan confocal microscope equipped with a Plan-Apochromat 63x/1.40 Oil DIC M27 objective coupled with a YFP Filter (excitation at 514 nm, emission at 561 nm, laser strength 0.98%). […]

ClpB E279Q/E678Q = biological target: T1, ClpB E279Q/E678Q (Escherichia coli, UniProt P63284, E279Q/E678Q); experiment: FITC-casein fluorescence anisotropy titration with ClpB E279Q/E678Q; assay type: binding
T1 construct: made in house
Description: To monitor interactions between casein and ClpB, we used FITC-casein and the substrate-trapping ClpB E279Q/E678Q variant ([52], [73]). The titration of FITC-casein with ClpB E279Q/E678Q in the presence of ATP or ADP and the fluorescence anisotropy measurements were performed as previously described ([65]).

SMILES: c1ccc(CNc2nc(NCc3ccccc3)c3ccccc3n2)cc1 [DBeQ, N^2,N^4-dibenzylquinazoline-2,4-diamine]
- inhibition of basal ATPase of Trp/Phe ClpB variants [1]: became sensitive to inhibition
- ClpB-YFP localization with aggregates [2]: ClpB colocalizes with the aggregates even in dnaK103
- Kd (ClpB E279Q/E678Q): 78.5 nM
- effect on ATP-dependent binding of casein to ClpB (ClpB E279Q/E678Q; 80-μM DBeQ): did not inhibit
- Hill number of ClpB–FITC-casein binding with DBeQ (ClpB E279Q/E678Q; 80-μM DBeQ, 5-mM ATP): 1.48
- saturation signal of ClpB–FITC-casein binding with DBeQ (ClpB E279Q/E678Q; 80-μM DBeQ, 5-mM ATP): 0.11
